Bridge positions count the residues as written; N and C are the ends. Square brackets hold non-standard residues; d marks the D form. Peptide text beside a SMILES is read from it.
What was measured:
[1] = test system: T84 cells; experiment: Quantitative RT-PCR for transcripts in T84 cells; assay type: cell-based, human
Protocol: T-84 cells (˜10^7 cells) were treated with 1 μM SP-333 for 5 h. Subsequently, cDNA was prepared from total RNA using High Capacity RNA-to-cDNA Kit (Applied Biosystems, Carlsbad, Calif.) according to manufacturer's instructions. Quantitative Real-Time PCR amplification and analysis were carried out using Lightcycler 480 (Roche, Basel Switzerland), p65 and IKK-13 specific Taqman gene expression assays and Lightcycler 480 Probe master. All amplification assays were performed in duplicate employing 20 ng cDNA (based on input RNA). The total reaction volume was adjusted to 20 μL with appropriate amounts of TaqMan gene expression assays, Lightcycler 480 probe master and distilled water, then subjected to 45 PCR cycles using default cycling parameters. GAPDH transcript was used as endogenous control. The data generated were analyzed and expressed as target gene expression relative to endogenous control using comparative Cp method and 2^−ΔΔCp formula (comparative Cp values and advanced quantitative relative quantification method). TaqMan reagents were obtained from Applied Biosystems (Carlsbad, Calif.).
T-84 cells were treated with 1 μM SP-333 for 5 hours. Subsequently, cDNA was prepared from total RNA and subjected to quantitative Real-Time PCR using TaqMan reagents from Applied Biosystems.

[2] = assay type: in vitro ADME
Protocol: Plecanatide and SP-333 were incubated in simulated intestinal fluid (SIF) for 6-24 h. Inactivated SIF was used as a control. Following the treatment, samples were analyzed by HPLC by cGMP production in T84 cells. […] The active metabolite, SP-338 was characterized by MS and MS/MS and identified to be formed via removal of carboxyl terminal leucine possibly due to cleavage by carboxypeptidases.

[3] = test system: NF-κB; experiment: Inhibition of NF-κB signaling in LPS-stimulated T84 cells, Western blot; assay type: cell-based, human
Protocol: Approximately 1.5×10^6 T84 cells were seeded into 100 mm dishes and cultured essentially as described (Shailubhai et al. 2000). At 85-90% confluence, cells were washed and treated with 10 μg/ml lipopolysaccharides (LPS) from Escherichia coli (Sigma-Aldrich, St. Louis, Mo.) for 4 h. Subsequent to LPS treatment, cells were washed and replenished with fresh media containing 8-Bromo-cyclic GMP (8-Br-cGMP) at 0, 0.1, 1, 10, 100 and 1000 μM (Enzo Life Science, Farmingdale, N.Y.), or SP-333 at 0, 0.01, 0.1, 1 and 10 μM together with 500 μM of phosphodiesterase inhibitor Zaprinast (Sigma-Aldrich, St. Louis, Mo.) for 16 h before harvest. For analyzing phosphorylation status of IKK-α/β, T84 cells were stimulated with LPS (10 μg/ml) for 4 h followed by treatment with 0.1 and 1.0 μM of SP-333 in the presence of 500 μM Zaprinast, for 2 h. The control cells (without LPS treatment) were washed and refilled with fresh media and harvested simultaneously with treated cells. Nuclear and cytosolic extracts were prepared by the previously described method (Aiamkitsumrit et al. 2007). Protein concentration was measured with a Bio-Rad protein assay kit (Bio-Rad, Hercules, Calif.). The extracts were stored at −80° C. until use.
T84 cells at 85-90% confluence were washed and treated with 10 μg/ml Escherichia coli LPS (Sigma-Aldrich, St. Louis, Mo.) for 4 h.
Western Blot analysis: This was performed essentially as described^21 employing either 50 μg of cytoplasmic or 25 μg proteins of the nuclear fractions. The blots were probed overnight with primary antibodies of interest (anti-p65 antibody, 1:200 dilution; anti-IκB antibody 1:500 dilution; anti-phosphorylated p65 antibody, 1:250 dilution; anti-phosphorylated IκB antibody 1:250 dilution; all were from Santa Cruz Biotechnology (Santa Cruz, Calif.). Anti-IKK-β and phosphorylated IKK-α/β (Ser 176/180) were purchased from Cell Signaling Technology, Boston, Mass. and used at 1:500 dilution; anti-mouse or anti-rabbit antibodies conjugated to […] were used for chemiluminescence detection as recommended by manufacturer (GE Healthcare, Piscataway, N.J.).

[4] = Non-clinical safety and toxicology studies; conditions: rodents and monkeys, oral
[5] = test system: LPS stimulated T84 cells; experiment: Cytokines expression analysis (ELISA) in LPS stimulated T84 cells; assay type: cell-based, human; conditions: LPS 10 μg/ml 4 h, then SP-333 16 h
Protocol: To evaluate the effect of different concentrations of SP-333 on secretion of cytokines (IL-8 and TNF), 12-well plates seeded with 10^5 cells/well were used. At 85-90% confluence, cells were washed with DPBS and treated with or without LPS (10 μg/ml) for 4 h, followed by washing with phosphate buffered saline (PBS). SP-333 at 0, 0.01, 0.1, 1 and 10 μM) together with 500 μM of Zaprinast was added to the treated cells and incubated further for 16 h. The levels of IL-8 and TNF were quantified using human IL-8 and TNF ELISA development kits (Peprotech, Rocky Hill, N.J.) Each ELISA was performed in triplicate with cell-free supernatants from two independent experiments. The protein concentration of each well was assessed by Bio-Rad protein dye detection kit.

[6] = target: T1, GC-C Receptor (Homo sapiens, UniProt P25092); experiment: cGMP stimulation assay in T84 cells in the presence of zaprinast (Example 2); assay type: cell-based
T1 construct: endogenous in cells; host or cells: T84 human colon carcinoma cells
Protocol: Confluent monolayers of T84 cells in 24-well plates were pre-incubated with indicated amounts of SP-333 in the presence of zaprinast for 30 minutes at 37° C. Subsequently, the reaction was terminated by 3% perchloric acid and neutralized with 0.5N NaOH. Intracellular cGMP levels were determined in lysates using a ELISA kit (Cayman Chemical). All samples were analyzed in duplicates. Total protein was quantitated using Pierce BCA protein assay (Thermo Fisher Scientific).

[7] = SP-333 1 μM, 5 h, compared to unstimulated T84 cells, FIG. 3D
[8] = T84 cells, compared to untreated cells, FIG. 16

T1 sequence (P25092 24-1073): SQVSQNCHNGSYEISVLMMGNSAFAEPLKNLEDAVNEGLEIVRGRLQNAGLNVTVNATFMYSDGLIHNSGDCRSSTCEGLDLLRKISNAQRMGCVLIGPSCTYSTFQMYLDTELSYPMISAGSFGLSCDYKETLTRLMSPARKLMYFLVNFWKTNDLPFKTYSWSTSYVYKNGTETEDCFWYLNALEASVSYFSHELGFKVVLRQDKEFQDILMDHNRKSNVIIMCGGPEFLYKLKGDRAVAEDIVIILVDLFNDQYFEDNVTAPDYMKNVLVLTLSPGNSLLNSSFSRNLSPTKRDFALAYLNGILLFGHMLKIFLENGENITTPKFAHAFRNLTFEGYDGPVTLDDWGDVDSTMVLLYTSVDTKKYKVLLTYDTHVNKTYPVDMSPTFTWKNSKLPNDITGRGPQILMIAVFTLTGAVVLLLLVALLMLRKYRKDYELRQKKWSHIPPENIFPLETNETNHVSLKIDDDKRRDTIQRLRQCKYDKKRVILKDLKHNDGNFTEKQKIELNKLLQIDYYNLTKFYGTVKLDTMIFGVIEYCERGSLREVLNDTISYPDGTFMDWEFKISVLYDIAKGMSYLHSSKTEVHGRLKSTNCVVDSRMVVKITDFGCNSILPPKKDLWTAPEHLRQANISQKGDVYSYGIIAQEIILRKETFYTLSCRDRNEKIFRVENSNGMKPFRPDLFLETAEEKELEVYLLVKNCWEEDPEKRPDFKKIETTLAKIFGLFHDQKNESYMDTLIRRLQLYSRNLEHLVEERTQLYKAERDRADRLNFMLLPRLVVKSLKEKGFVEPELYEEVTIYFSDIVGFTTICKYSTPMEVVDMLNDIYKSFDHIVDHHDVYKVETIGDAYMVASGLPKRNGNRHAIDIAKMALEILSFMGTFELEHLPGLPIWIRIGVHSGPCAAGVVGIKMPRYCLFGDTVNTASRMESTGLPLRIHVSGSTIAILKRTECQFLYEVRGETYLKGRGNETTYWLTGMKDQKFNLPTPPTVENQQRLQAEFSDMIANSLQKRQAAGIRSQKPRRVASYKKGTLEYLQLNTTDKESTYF

CC(C)C[C@@H]1NC(=O)[C@H](CCC(=O)O)NC(=O)[C@@H](NC(=O)[C@H](CCC(=O)O)NC(=O)[C@H](CC(=O)O)NC(=O)[C@H](N)CC(N)=O)CSSC[C@@H]2NC(=O)[C@H](C)NC(=O)[C@H](C(C)C)NC(=O)[C@H](CC(N)=O)NC(=O)[C@H](C(C)C)NC(=O)[C@H](CSSC[C@@H](C(=O)N[C@H](CC(C)C)C(=O)O)NC(=O)CNC(=O)[C@H]([C@@H](C)O)NC2=O)NC1=O [SP-333, dAsn^1-Asp^2-Glu^3-Cys^4-Glu^5-Leu^6-Cys^7-Val^8-Asn^9-Val^10-Ala^11-Cys^12-Thr^13-Gly^14-Cys^15-dLeu^16] (H-[dN]DECELCVNVACTGC[dL]-OH; disulfide 4-12, 7-15; N-terminus and C-terminus assumed)
reduction of transcript levels of IKK-13 [1, 7]: approximately 50% | reduction of transcript levels of p65 [1, 7]: approximately 50% | decrease in IKKβ expression [1, 8]: 59% | decrease in p65 expression [1, 8]: 55% | stability in simulated gastric and intestinal fluids [2]: stable | levels of phospho-p65 ([3]; LPS 10 μg/ml 4 h, then SP-333 (1.0 and 10 μM) 16 h, zaprinast 500 μM): reduced levels of phospho-p65 in a dose-dependent manner | levels of IκBα ([3]; LPS-activated T84 cells): increase | levels of phospho-IκBα ([3]; LPS-activated T84 cells): reduced | level of total IKKβ ([3]; LPS-activated T84 cells, FIG. 3C): remained unchanged | LPS-mediated increase in phosphorylation of IKKβ ([3]; SP-333 1 μM, 2 h after LPS 4 h): completely reversed | LPS induced activation of NF-κB ([3]; T84 cells): inhibited | non-clinical safety and toxicology [4]: orally-safe drug candidate | LPS stimulated production of IL-8 [5]: concentration dependent reversal | LPS stimulated production of TNF [5]: concentration dependent reversal | concentration at which cGMP synthesis approached a plateau ([6]; FIG. 14): 1 µM | cGMP production ([6]; FIG. 15): enhanced

Reference: US20160235807A1, “AGONISTS OF GUANYLATE CYCLASE USEFUL FOR DOWNREGULATION OF PRO-INFLAMMATORY CYTOKINES” (SYNERGY PHARMACEUTICALS, INC., priority 2013, published 2016)
